This assay relates to 885512-296-R-J2-PDC complex spheroid growth, % test/control. The experiment in a line: Anticancer human tumor 885512-296-R-J2-PDC patient-derived breast carcinoma cell line growth inhibition [AhR]. To be noted: for viability, T/C: stronger effect = lower value. An outline of the steps: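 Agents were dosed in half-log steps down from roughly clinical Cmax, or from 10 microM where Cmax was unknown, alone and with AhR antagonists. Read-out: percent test/control growth of tumor spheroids containing HUVEC and MSC stromal cells.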

Where [1] appears, read: curve of first compound, second compound 0.1 µM.
[2] abbreviates: curve of first compound, second compound 0.316 µM.
Where [3] appears, read: curve of first compound, second compound 1 µM.
Setting [4] is: curve of first compound, second compound 3.16 µM.
[5] abbreviates: curve of first compound, second compound 10 µM.
The mark [6] stands for this setting: second compound 0.1 µM, first compound 0.0316 µM.
Setting [7] is: second compound 0.1 µM, first compound 0.1 µM.
[8] abbreviates: second compound 0.1 µM, first compound 0.316 µM.
[9] abbreviates: second compound 0.1 µM, first compound 1 µM.
[10] abbreviates: second compound 0.1 µM, first compound 3.16 µM.
The mark [11] stands for this setting: second compound 0.1 µM, first compound 10 µM.
Setting [12] is: second compound 0.316 µM, first compound 0.0316 µM.
The mark [13] stands for this setting: second compound 0.316 µM, first compound 0.1 µM.
Where [14] appears, read: second compound 0.316 µM, first compound 0.316 µM.
[15] abbreviates: second compound 0.316 µM, first compound 1 µM.
Where [16] appears, read: second compound 0.316 µM, first compound 3.16 µM.
The mark [17] stands for this setting: second compound 0.316 µM, first compound 10 µM.
The mark [18] stands for this setting: second compound 1 µM, first compound 0.0316 µM.
[19] abbreviates: second compound 1 µM, first compound 0.1 µM.
The mark [20] stands for this setting: second compound 1 µM, first compound 0.316 µM.
[21] abbreviates: second compound 1 µM, first compound 1 µM.
The mark [22] stands for this setting: second compound 1 µM, first compound 3.16 µM.
Setting [23] is: second compound 1 µM, first compound 10 µM.
The mark [24] stands for this setting: second compound 3.16 µM, first compound 0.0316 µM.
Where [25] appears, read: second compound 3.16 µM, first compound 0.1 µM.
Setting [26] is: second compound 3.16 µM, first compound 0.316 µM.
[27] abbreviates: second compound 3.16 µM, first compound 1 µM.
Where [28] appears, read: second compound 3.16 µM, first compound 3.16 µM.
Setting [29] is: second compound 3.16 µM, first compound 10 µM.
Where [30] appears, read: second compound 10 µM, first compound 0.0316 µM.
Where [31] appears, read: second compound 10 µM, first compound 0.1 µM.
[32] abbreviates: second compound 10 µM, first compound 0.316 µM.
The mark [33] stands for this setting: second compound 10 µM, first compound 1 µM.
Setting [34] is: second compound 10 µM, first compound 3.16 µM.
Where [35] appears, read: second compound 10 µM, first compound 10 µM.

Experimental findings from PubChem BioAssay AID1919006 (Molecular Pharmacology Branch, DTP, NCI, 2023) are described below.

Molecules are shown by their SMILES. pIC50: −log10 of the molar value. Values joined by “and” are separate entries in the source; they are usually repeats but may differ in a detail not shown here. Equal values may be shown once.
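Further: spheroids exposed to compounds for seven days.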

On to `Nc1ccccc1NC(=O)c1ccc(CNC(=O)OCc2cccnc2)cc1`, for which the viability, T/C (in general, the result in the treated group divided by that in the control group, in per cent) was 79.7% and 97% and 82.8% (compound 0.0316 µM); 86.1% and 81.5% and 74.1% (compound 0.1 µM); 67.5% and 63.9% and 58.3% (compound 0.316 µM); 48.1% (2×) and 46.7% (compound 1 µM); 25.6% and 24.4% and 32.2% (compound 3.16 µM); 10.4% and 10.3% (2×) (compound 10 µM). In addition, for the setting “curve of compound”, the pIC50 – broadly, −log10 of the IC50, conventionally taken in molar units – is 6.04 and 6.12 and 6.13.

In the case of `COc1cc(Nc2ncc3c(n2)-c2ccc(Cl)cc2C(c2c(F)cccc2OC)=NC3)ccc1C(=O)O` + Cc1cncc(-c2nc(NCCc3c[nH]c4ccccc34)c3ncn(C(C)C)c3n2)c1, the negative logarithm of the IC50 (pIC50) was 7.50 under setting [1]; 7.32 under setting [2]; above 7.50 under setting [3]; above 7.50 under setting [4]; above 7.50 under setting [5]. Also, the viability, T/C reads like this: under setting [6], 49.5%; under setting [7], 46.1%; under setting [8], 47.6%; under setting [9], 50.6%; under setting [10], 30.2%; under setting [11], 32%. The viability, T/C reads like this: under setting [12], 53.3%; under setting [13], 43.6%; under setting [14], 48%; under setting [15], 42.4%; under setting [16], 45.8%; under setting [17], 34.2%. In addition, the viability, T/C is, setting by setting: under setting [18], 44.5%; under setting [19], 37.8%; under setting [20], 46%; under setting [21], 41.7%; under setting [22], 39.7%; under setting [23], 39.5%. Also, the viability, T/C under setting [24] was 32.6%; the viability, T/C under setting [25] is 35.6%; the viability, T/C under setting [26] was 33.6%; the viability, T/C under setting [27] was 34%; the viability, T/C under setting [28] is 32.2%; the viability, T/C under setting [29] is 31.2%. Further, the viability, T/C is 16.2% under setting [30]; 12.8% under setting [31]; 13.3% under setting [32]; 14.8% under setting [33]; 17.2% under setting [34]; 17.6% under setting [35].

With `CC1COCCN1c1cc(C2(S(C)(=N)=O)CC2)nc(-c2ccnc3[nH]ccc23)n1` (centres undefined) + Cc1ccccc1N=Nc1ccc(NC(=O)c2ccnn2C)c(C)c1, the pIC50 runs as follows: under setting [1], 5.73; under setting [2], 5.77; under setting [3], 5.75; under setting [4], 5.74; under setting [5], 6.20. For the same molecule, the viability, T/C under setting [6] is 108%; the viability, T/C under setting [7] was 102%; the viability, T/C under setting [8] is 96.3%; the viability, T/C under setting [9] was 87%; the viability, T/C under setting [10] was 19%; the viability, T/C under setting [11] was 4.98%. Also, the viability, T/C is 103% under setting [12]; 127% under setting [13]; 106% under setting [14]; 77.9% under setting [15]; 17.9% under setting [16]; 5.69% under setting [17]. Also, the viability, T/C is, setting by setting: under setting [18], 108%; under setting [19], 117%; under setting [20], 95%; under setting [21], 83.6%; under setting [22], 17.4%; under setting [23], 5.01%. For the same molecule, the viability, T/C runs as follows: under setting [24], 90%; under setting [25], 92%; under setting [26], 97.6%; under setting [27], 85.7%; under setting [28], 17.9%; under setting [29], 5.33%. Moreover, the viability, T/C was 56.9% under setting [30]; 53.3% under setting [31]; 49.6% under setting [32]; 48.2% under setting [33]; 13.4% under setting [34]; 5.82% under setting [35].

In the case of `CCc1c2c(nc3ccc(O)cc13)-c1cc3c(c(=O)n1C2)COC(=O)[C@]3(O)CC`, the viability, T/C is 17.5% and 17.7% and 9.88% (compound 0.000949 µM); 9.21% and 7.45% and 8.07% (compound 0.003 µM); 6.22% and 5.99% and 5.4% (compound 0.00949 µM); 4.21% and 4.52% and 3.14% (compound 0.03 µM); 2.53% and 2.06% and 1.76% (compound 0.0949 µM); 1.46% and 1.11% and 1.27% (compound 0.3 µM). Moreover, the pIC50 (curve of compound) was above 9.02.

Take `Nc1ncn(C2CC(O)C(CO)S2)c(=O)n1` (centres undefined) + CC(CO)NC(=O)c1cc(-c2ccc(Cl)cc2)nn(-c2cnn(C)c2)c1=O: the pIC50 is, setting by setting: under setting [1], 6.56; under setting [2], below 6.52; under setting [3], below 6.52; under setting [4], 6.63; under setting [5], 6.56. The viability, T/C (second compound 0.1 µM, first compound 0.000949 µM) is 98.8%; the viability, T/C (second compound 0.1 µM, first compound 0.003 µM) was 117%; the viability, T/C (second compound 0.1 µM, first compound 0.00949 µM) is 108%; the viability, T/C (second compound 0.1 µM, first compound 0.03 µM) is 125%; the viability, T/C (second compound 0.1 µM, first compound 0.0949 µM) was 77%; the viability, T/C (second compound 0.1 µM, first compound 0.3 µM) was 47.5%. For the same molecule, the viability, T/C reads like this: (second compound 0.316 µM, first compound 0.000949 µM) 106%; (second compound 0.316 µM, first compound 0.003 µM) 92.9%; (second compound 0.316 µM, first compound 0.00949 µM) 146%; (second compound 0.316 µM, first compound 0.03 µM) 111%; (second compound 0.316 µM, first compound 0.0949 µM) 80.5%; (second compound 0.316 µM, first compound 0.3 µM) 54.2%. For the same molecule, the viability, T/C (second compound 1 µM, first compound 0.000949 µM) was 106%; the viability, T/C (second compound 1 µM, first compound 0.003 µM) is 104%; the viability, T/C (second compound 1 µM, first compound 0.00949 µM) is 113%; the viability, T/C (second compound 1 µM, first compound 0.03 µM) was 127%; the viability, T/C (second compound 1 µM, first compound 0.0949 µM) is 81.4%; the viability, T/C (second compound 1 µM, first compound 0.3 µM) was 54.1%. Further, the viability, T/C is, setting by setting: (second compound 3.16 µM, first compound 0.000949 µM) 97.9%; (second compound 3.16 µM, first compound 0.003 µM) 101%; (second compound 3.16 µM, first compound 0.00949 µM) 112%; (second compound 3.16 µM, first compound 0.03 µM) 87.2%; (second compound 3.16 µM, first compound 0.0949 µM) 72.2%; (second compound 3.16 µM, first compound 0.3 µM) 43.9%. In addition, the viability, T/C (second compound 10 µM, first compound 0.000949 µM) was 101%; the viability, T/C (second compound 10 µM, first compound 0.003 µM) was 96.3%; the viability, T/C (second compound 10 µM, first compound 0.00949 µM) is 100%; the viability, T/C (second compound 10 µM, first compound 0.03 µM) is 93.1%; the viability, T/C (second compound 10 µM, first compound 0.0949 µM) was 70.8%; the viability, T/C (second compound 10 µM, first compound 0.3 µM) is 48.2%.
